Results reported in patent US20110098278A1 (priority 2009, published 2011).
Values joined by “and” are separate entries in the source; they are usually repeats but may differ in a detail not shown here. Equal entries are not always repeated. “Also recorded” adds a separate entry of the source. Structures can show the parent of a compound that is named as a salt.

Legend:
Sprague Dawley rat = assay: PICA behavior (kaolin consumption) in the Sprague Dawley rat as surrogate for emesis; assay type: in vivo; details: for Cumulative mean ± SD kaolin consumption: 40 mg base/kg po
Method: This is a well established model for this purpose in the rat (Takeda N et al (1993) 45 817-21).
Once determined, a comparison was made of the effects of these doses on kaolin consumption over a 0-96 hour period in 24 h increments.
In detail groups of 10 male Sprague Dawley rats were habituated to kaolin for 3 days, then singly housed in grid-bottomed cages and habituated for a further 2 days prior to dosing. On the day of drug administration, the animals were food-deprived for 1 h prior to dosing. […] Access to a weighed quantity of food and kaolin was then restored. Food and kaolin was weighed 24, 48, 72 and 96 h after dosing.

ferret = assay: Emetic activity (retching and vomiting) in the ferret
[1] = system: rabbit stomach circular smooth muscle; assay: Ex vivo rabbit stomach circular smooth muscle, electrical field stimulation; assay type: cell-based; details: rabbit stomach strips under EFS; 100 nM to 100 μM
rat = assay: Comparative acute toxicity (rat behavior) of sc and po galantamine; assay type: in vivo; details: individual rats
[2] = system: human stomach circular smooth muscle; assay: Ex vivo human stomach circular smooth muscle, electrical field stimulation; assay type: cell-based; details: human stomach strips under EFS; 100 nM to 100 μM
[3] = Local galantamine concentration within the stomach after a typical dose; details: following a typical 24 mg dose
[4] = 20 mg (free base)/kg oral or similar molar dose
[5] = 20 mg/kg p.o., 2 hr. observation, individual ferrets, listed as Galantamine HBr, hydrobromide

COc1ccc2c3c1O[C@H]1C[C@@H](O)C=C[C@@]31CCN(C)C2 [Galantamine, (4aS,6R,8aS)-4a,5,9,10,11,12-hexahydro-3-methoxy-11-methyl-6H-benzofuro[3a,3,2ef][2]benzazepin-6-ol hydrobromide]
kaolin consumption compared with controls (in words) (Sprague Dawley rat; 3.5 mg/kg subcutaneous, over the whole 96 h period): no increase at all in kaolin consumption | Cumulative mean ± SD kaolin consumption (Sprague Dawley rat; 24 h): 2.73 ± 1.4 g | Cumulative mean ± SD kaolin consumption (Sprague Dawley rat; 48 h): 3.36 ± 1.68 g | Cumulative mean ± SD kaolin consumption (Sprague Dawley rat; 72 h): 4.07 ± 1.88 g | Cumulative mean ± SD kaolin consumption (Sprague Dawley rat; 96 h, hydrobromide): 4.69 ± 2.43 g | Cumulative mean ± SD kaolin consumption (Sprague Dawley rat; 96 h, listed as galantamine, hydrobromide): 4.69 ± 2.43 g | kaolin consumption / PICA behavior (in words) (Sprague Dawley rat; 40 mg/kg oral, over 96 h, hydrobromide): significantly higher; also recorded: marked PICA behavior | rat kaolin consumption (g) over 24 h post-dose (Sprague Dawley rat; single oral dose 40 mg base/kg, Mean): 1.79 g | rat kaolin consumption (g) over 24 h post-dose (Sprague Dawley rat; single oral dose 40 mg base/kg, individual rats 1-10, hydrobromide): 1.06 g and 0.35 g and 0.02 g and 3.14 g and 4.47 g and 1.62 g and 0.16 g and 2.93 g and 3.11 g and 1.03 g | rat kaolin consumption (g) over 24 h post-dose (Sprague Dawley rat; single subcutaneous dose of 3.5 mg base/kg, Mean (rat 7 omitted as outlier)): 0.25 g | rat kaolin consumption (g) over 24 h post-dose (Sprague Dawley rat; single subcutaneous dose of 3.5 mg base/kg, individual rats 1-10, hydrobromide): 0.67 g and 0.36 g and 0.88 g and 0.08 g and *1.57 g and 0.00 g (3×) and 0.21 g and 0.05 g | animals dosed that retched (ferret; [4]): 55% | animals dosed that vomited (ferret; [4]): 40% | Total number of individual incidences of: Retching (ferret; 20 mg/kg p.o. (galantamine free base content), 2 hr. observation, individual ferrets, listed as Galantamine HBr, hydrobromide): 21 and 29 and 18 and 0 (9×) and 31 and 3 (2×) and 6 and 2 and 5 and 13 and 22 | Time (min) to onset of: Retching (ferret; [5]): 33 min and 3 min and 5 min (3×) and >120 min (8×) and 41 min and 11 min and 10 min and 7 min (2×) and 6 min (2×) | Time (min) to onset of: Vomiting (ferret; [5]): 33 min and 75 min and 5 min (2×) and >120 min (11×) and 37 min and 10 min and 13 min and 6 min and 41 min | Total number of individual incidences of: Vomiting (ferret; [5]): 4 (2×) and 1 (6×) and 0 (11×) and 2 | stimulation of smooth muscle contractions (change in force production) [1]: evidence of a dose response | Effect on rat behavior (rat; 3.5 mg/kg sc, 2 min post dose, hydrobromide): Rat 1: purposeless chewing, mouth; also recorded: Rat 3: purposeless chewing, mouth | Effect on rat behavior (rat; 3.5 mg/kg sc, 5 min post-dose, hydrobromide): Rat 1: purposeless chewing, mouth movements,; also recorded: Rat 3: As per 2 min | Effect on rat behavior (rat; 3.5 mg/kg sc, 10 min post-dose, hydrobromide): Rat 1: Tremors, flattened rostral body; also recorded: Rat 3: purposeless chewing, mouth | Effect on rat behavior (rat; 3.5 mg/kg sc, 20 min post-dose, hydrobromide): Rat 1: Quiescent, flattened body posture,; also recorded: Rat 3: Some ambulation restored symptoms | Effect on rat behavior (rat; 3.5 mg/kg sc, 30 min post-dose, hydrobromide): Rat 1: Quiescent, flattened body posture,; also recorded: Rat 3: Some ambulation restored | Effect on rat behavior (rat; 3.5 mg/kg sc, 45 min post-dose): Rat 1: food consumption and more | Effect on rat behavior (rat; 3.5 mg/kg sc, 1 h, hydrobromide): Rat 1: Normal; also recorded: Rat 3: Normal | Effect on rat behavior (rat; 40 mg/kg po, 10 min post-dose, hydrobromide): Rat 6: Quiescent, purposeless; also recorded: Rat 7: Quiescent, purposeless chewing, | Effect on rat behavior (rat; 40 mg/kg po, 20 min post-dose, hydrobromide): Rate 6 as per 10 min + arching; also recorded: Rat 7: grooming + purposeless | Effect on rat behavior (rat; 40 mg/kg po, 30 min post-dose): Rat 6: quiescent, purposeless chewing, | Effect on rat behavior (rat; 40 mg/kg po, 45 min post-dose, hydrobromide): Rat 6: flattened body posture, chewing,; also recorded: Rat 7: grooming, sawdust consumption | Effect on rat behavior (rat; 40 mg/kg po, 1 h, hydrobromide): Rat 6: flattened body posture, tremor; also recorded: Rat 7: Grooming, sawdust | Effect on rat behavior (rat; 40 mg/kg po, 1.5 h, hydrobromide): Rat 7: quiet, falttened posture | Effect on rat behavior (rat; 40 mg/kg po, 2 h, hydrobromide): Rat 6: much improved; also recorded: Rat 7: much improved | Effect on rat behavior (rat; 40 mg/kg po, 3 h, hydrobromide): Rat 6: normal; also recorded: Rat 7: normal | stimulation of smooth muscle contractions (change in force production) [2]: evidence of a dose response | Local concentrations within the stomach [3]: 200 to 400 µM
